Tests used:
[1] = tested on: intracellular ROS (Reactive Oxygen Species); experiment: Production of ROS in keratinocytes subjected to H2O2 stress (DCFH-DA probe); format: cell-based, human; conditions: for ROS Mean: H2O2 100 μM
Description: The antioxidant potential of the KPO extract was evaluated in an assay model of intracellular ROS (Reactive Oxygen Species) induced by pro-oxidising H2O2 stress. Normal human epidermal keratinocytes were pre-incubated for 24 hours with KPO extract at 0.001%, 0.002% or 0.005% (d.e.) or reference anti-inflammatory molecules Quercetin at 10 μM or Vitamin C at 500 μM. The cell layer was then contacted with a DCFH-DA probe prior to induction of oxidative stress by 100 μM of H2O2. The amount of ROS produced was evaluated by measuring the fluorescence emitted when the probe is oxidised. The results were analysed statistically by one-factor variance analysis followed by a Tukey test: **p<0.01; ***p<0.001.

SPARC = experiment: Gene expression in normal human dermal fibroblasts (RT-qPCR): SPARC; format: cell-based; conditions: TGFβ1 5 ng/ml
Description: (§1) The effect of the KPO extract was evaluated on the gene expression of markers involved in cell communication and in the organisation of the dermal extracellular matrix in the fibroblasts: normal human dermal fibroblasts were incubated for 6 hours or 24 hours with 0.0005% or 0.001% KPO extract (d.e.) or TGFβ1 at 5 ng/ml (positive control for dermal matrix induction markers). At the end of incubation, the gene expression of the following markers was analysed by RT-qPCR. • CTNNA1 (Catenin α): binds to cadherins to promote cellular interactions. • Syndecan: proteoglycan which consolidates cell/cell and cell/matrix interactions. • Laminin 5 (α3β3γ2): a molecule that assists adhesion to the basal membrane. • TNC (Tenacin C): extracellular matrix proteins involved in cohesion of the dermo-epidermal junction and which promote the synthesis of collagen VII. • SPARC: protein associated with various constituents of the extracellular matrix and which contributes to its organisation. • BGN (Biglycan): proteoglycan involved in the assembly of collagen fibres. • Versican: a major component of the ECM which plays a central role in the morphogenesis and maintenance of tissues. […]
(§2) The results are given as relative quantities (RQ) with respect to the untreated control. […]

BGN (Biglycan) = experiment: Gene expression in normal human dermal fibroblasts (RT-qPCR): BGN; format: cell-based; conditions: TGFβ1 5 ng/ml
Description: as §1, §2

CTNNA1 (Catenin α) = experiment: Gene expression in normal human dermal fibroblasts (RT-qPCR): CTNNA1; format: cell-based; conditions: TGFβ1 5 ng/ml
Description: as §1, §2

Syndecan = experiment: Gene expression in normal human dermal fibroblasts (RT-qPCR): Syndecan; format: cell-based; conditions: TGFβ1 5 ng/ml
Description: as §1, §2

TNC (Tenacin C) = experiment: Gene expression in normal human dermal fibroblasts (RT-qPCR): TNC; format: cell-based; conditions: TGFβ1 5 ng/ml
Description: as §1, §2

Versican = experiment: Gene expression in normal human dermal fibroblasts (RT-qPCR): Versican; format: cell-based; conditions: TGFβ1 5 ng/ml
Description: as §1, §2

Collagen I = experiment: Gene expression in normal human dermal fibroblasts (RT-qPCR): Collagen I; format: cell-based; conditions: TGFβ1 5 ng/ml
Description: as §1, §2

Collagen III = experiment: Gene expression in normal human dermal fibroblasts (RT-qPCR): Collagen III; format: cell-based; conditions: TGFβ1 5 ng/ml
Description: as §1, §2

Collagen IV = experiment: Gene expression in normal human dermal fibroblasts (RT-qPCR): Collagen IV; format: cell-based; conditions: TGFβ1 5 ng/ml
Description: as §1, §2

Collagen VII = experiment: Gene expression in normal human dermal fibroblasts (RT-qPCR): Collagen VII; format: cell-based; conditions: TGFβ1 5 ng/ml
Description: as §1, §2

Fibronectin = experiment: Gene expression in normal human dermal fibroblasts (RT-qPCR): Fibronectin; format: cell-based; conditions: TGFβ1 5 ng/ml
Description: as §1, §2

Elastin = experiment: Gene expression in normal human dermal fibroblasts (RT-qPCR): Elastin; format: cell-based; conditions: TGFβ1 5 ng/ml
Description: as §1, §2

LOXL = experiment: Gene expression in normal human dermal fibroblasts (RT-qPCR): LOXL; format: cell-based; conditions: TGFβ1 5 ng/ml
Description: as §1, §2

Dermatopontin = experiment: Gene expression in normal human dermal fibroblasts (RT-qPCR): Dermatopontin; format: cell-based; conditions: TGFβ1 5 ng/ml
Description: as §1, §2

Prostaglandin E2 (PGE2) = experiment: Production of PGE2 in keratinocytes stimulated by PMA (ELISA); format: cell-based, human; conditions: indomethacin at 0.1 μM
Description: The keratinocytes were then stimulated by 10 μg/ml of PMA (Phorbol Myristate Acetate) and incubated overnight with KPO extract or reference molecules. […] The significance was evaluated by means of one-factor variance analysis followed by a Tukey test: *p<0.05; ***p<0.001; ns: non-significant p>0.05.

Compound: O=c1c(O)c(-c2ccc(O)c(O)c2)oc2cc(O)cc(O)c12 [Quercetin]
- ROS change vs H2O2 ([1]; Quercetin at 10 μmol/l): −90% vs H2O2 ***
- ROS Mean ([1]; Quercetin at 10 μmol/l): 12959.361 Arbitrary Unit

Compound: TGFβ1: positive control for dermal matrix induction markers
- SPARC Degree of expression (Relative Quantity) (SPARC; 6 h of treatment): 1.28 ns
- SPARC Degree of expression (Relative Quantity) (SPARC; 24 h of treatment): 2.00 ***
- BGN Degree of expression (Relative Quantity) (BGN (Biglycan); 6 h of treatment): 1.28 ns
- BGN Degree of expression (Relative Quantity) (BGN (Biglycan); 24 h of treatment): 2.92 ***
- CTNNA1 Degree of expression (Relative Quantity) (CTNNA1 (Catenin α); 6 h of treatment): 1.07 ns
- CTNNA1 Degree of expression (Relative Quantity) (CTNNA1 (Catenin α); 24 h of treatment): 1.07 ns
- Syndecan Degree of expression (Relative Quantity) (Syndecan; 6 h of treatment): 1.85 ns
- Syndecan Degree of expression (Relative Quantity) (Syndecan; 24 h of treatment): 8.08 ***
- TNC Degree of expression (Relative Quantity) (TNC (Tenacin C); 6 h of treatment): 0.94 ns
- TNC Degree of expression (Relative Quantity) (TNC (Tenacin C); 24 h of treatment): 1.79 *
- Versican Degree of expression (Relative Quantity) (Versican; 6 h of treatment): 1.61 ns
- Versican Degree of expression (Relative Quantity) (Versican; 24 h of treatment): 2.87 **
- Collagen I Degree of expression (Relative Quantity) (Collagen I; 6 h of treatment): 0.84 ns
- Collagen I Degree of expression (Relative Quantity) (Collagen I; 24 h of treatment): 2.30 *
- Collagen III Degree of expression (Relative Quantity) (Collagen III; 6 h of treatment): 0.91 ns
- Collagen III Degree of expression (Relative Quantity) (Collagen III; 24 h of treatment): 1.24 ns
- Collagen IV Degree of expression (Relative Quantity) (Collagen IV; 6 h of treatment): 1.68 ***
- Collagen IV Degree of expression (Relative Quantity) (Collagen IV; 24 h of treatment): 2.81 **
- Collagen VII Degree of expression (Relative Quantity) (Collagen VII; 6 h of treatment): 1.96 ***
- Collagen VII Degree of expression (Relative Quantity) (Collagen VII; 24 h of treatment): 3.07 ***
- Fibronectin Degree of expression (Relative Quantity) (Fibronectin; 6 h of treatment): 1.09 ns
- Fibronectin Degree of expression (Relative Quantity) (Fibronectin; 24 h of treatment): 2.12 *
- Elastin Degree of expression (Relative Quantity) (Elastin; 6 h of treatment): 0.72 ns
- Elastin Degree of expression (Relative Quantity) (Elastin; 24 h of treatment): 3.65 **
- LOXL Degree of expression (Relative Quantity) (LOXL; 6 h of treatment): 1.05 ns
- LOXL Degree of expression (Relative Quantity) (LOXL; 24 h of treatment): 1.10 ns
- Dermatopontin Degree of expression (Relative Quantity) (Dermatopontin; 6 h of treatment): 1.14 ns
- Dermatopontin Degree of expression (Relative Quantity) (Dermatopontin; 24 h of treatment): 1.36 *

Compound: COc1ccc2c(c1)c(CC(=O)O)c(C)n2C(=O)c1ccc(Cl)cc1 [Indo, indomethacin]
- PGE2 change vs PMA (Prostaglandin E2 (PGE2)): −77% vs PMA ***
- PGE2 Mean (Prostaglandin E2 (PGE2); PMA stimulated): 181.780 (pg/ml)/OD neutral red

Compound: O=C1O[C@H]([C@@H](O)CO)C(O)=C1O [Vit C, Vitamin C]
- ROS change vs H2O2 ([1]; Vit C 500 μM): −90% vs H2O2 ***
- ROS Mean ([1]; Vit C 500 μM): 12807.703 Arbitrary Unit
